Data reported in patent US20240092758A1, “IMIDAZOLO INDAZOLE COMPOUNDS AS JAK INHIBITORS” (Theravance Biopharma R&D IP, LLC, priority 2021, published 2024).

How the values were obtained:
JAK1 = JAK1 (Homo sapiens (Human), UniProt P23458); test: Biochemical JAK kinase assay (LanthaScreen), JAK1; conditions: for Ki: read-out: JAK1 pKi (converted)
In short: (§1)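 LanthaScreen format: phospho-STAT1 (pTyr701) detected with 2 nM Tb antibody after 10 mM EDTA quench. Kinase step used Km-level ATP and 200 nM STAT1 peptide, 1 h at ambient after 1 h pre-incubation. Inhibition fitted to IC50, reported as pKi.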

[1] = system: IL-13 induced STAT6 phosphorylation in BEAS-2B human lung epithelial cells; test: Cellular JAKI potency assay (BEAS-2B); type: cell-based; conditions: BEAS-2B cells; for IC50: Homo sapiens, BEAS-2B, read-out: BEAS2B pIC50 (converted)
In short: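 BEAS-2B cells were preincubated with compound (0.1% DMSO) in HBSS/HEPES/BSA for 1 h at 37 °C, then stimulated with IL-13 (80 ng/mL before addition) for 30 min. After lysis, pSTAT6 (Tyr641) was quantified by AlphaLISA SureFire; IC50 from a 4-parameter fit of percent inhibition, reported as pIC50.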

JAK2 = JAK2 (Homo sapiens (Human), UniProt O60674); test: Biochemical JAK kinase assay (LanthaScreen), JAK2; conditions: for Ki: read-out: JAK2 pKi (converted)
Sequence of JAK2 (O60674 whole entry): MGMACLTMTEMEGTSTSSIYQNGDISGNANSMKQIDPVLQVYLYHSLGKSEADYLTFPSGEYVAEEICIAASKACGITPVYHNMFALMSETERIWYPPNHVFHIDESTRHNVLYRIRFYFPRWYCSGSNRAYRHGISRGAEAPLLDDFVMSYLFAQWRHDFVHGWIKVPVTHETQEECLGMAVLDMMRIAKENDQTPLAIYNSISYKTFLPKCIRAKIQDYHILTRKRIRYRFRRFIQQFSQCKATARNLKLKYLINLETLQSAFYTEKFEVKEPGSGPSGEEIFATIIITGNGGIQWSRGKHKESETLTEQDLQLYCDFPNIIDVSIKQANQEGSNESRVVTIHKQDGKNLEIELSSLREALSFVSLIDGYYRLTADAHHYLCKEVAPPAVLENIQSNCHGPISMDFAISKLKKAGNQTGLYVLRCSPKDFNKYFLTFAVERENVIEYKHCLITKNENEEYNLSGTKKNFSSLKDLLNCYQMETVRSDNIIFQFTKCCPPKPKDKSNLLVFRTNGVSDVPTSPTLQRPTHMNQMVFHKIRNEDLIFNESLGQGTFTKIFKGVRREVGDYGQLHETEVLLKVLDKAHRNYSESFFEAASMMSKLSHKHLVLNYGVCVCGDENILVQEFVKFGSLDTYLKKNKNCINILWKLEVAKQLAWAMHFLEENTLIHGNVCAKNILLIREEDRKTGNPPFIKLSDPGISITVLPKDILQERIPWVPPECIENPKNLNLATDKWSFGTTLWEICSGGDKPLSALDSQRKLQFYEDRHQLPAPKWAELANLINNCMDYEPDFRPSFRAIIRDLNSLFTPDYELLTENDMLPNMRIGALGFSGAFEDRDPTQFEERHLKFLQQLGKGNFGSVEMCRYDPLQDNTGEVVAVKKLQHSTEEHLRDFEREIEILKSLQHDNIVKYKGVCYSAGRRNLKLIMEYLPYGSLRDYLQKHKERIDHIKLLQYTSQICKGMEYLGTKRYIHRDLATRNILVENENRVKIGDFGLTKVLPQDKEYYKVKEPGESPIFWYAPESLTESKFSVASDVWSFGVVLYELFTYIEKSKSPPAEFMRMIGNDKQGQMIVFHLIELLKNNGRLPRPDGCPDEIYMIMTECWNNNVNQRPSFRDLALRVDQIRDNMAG
In short: as §1

Sequence of JAK1 (P23458 whole entry): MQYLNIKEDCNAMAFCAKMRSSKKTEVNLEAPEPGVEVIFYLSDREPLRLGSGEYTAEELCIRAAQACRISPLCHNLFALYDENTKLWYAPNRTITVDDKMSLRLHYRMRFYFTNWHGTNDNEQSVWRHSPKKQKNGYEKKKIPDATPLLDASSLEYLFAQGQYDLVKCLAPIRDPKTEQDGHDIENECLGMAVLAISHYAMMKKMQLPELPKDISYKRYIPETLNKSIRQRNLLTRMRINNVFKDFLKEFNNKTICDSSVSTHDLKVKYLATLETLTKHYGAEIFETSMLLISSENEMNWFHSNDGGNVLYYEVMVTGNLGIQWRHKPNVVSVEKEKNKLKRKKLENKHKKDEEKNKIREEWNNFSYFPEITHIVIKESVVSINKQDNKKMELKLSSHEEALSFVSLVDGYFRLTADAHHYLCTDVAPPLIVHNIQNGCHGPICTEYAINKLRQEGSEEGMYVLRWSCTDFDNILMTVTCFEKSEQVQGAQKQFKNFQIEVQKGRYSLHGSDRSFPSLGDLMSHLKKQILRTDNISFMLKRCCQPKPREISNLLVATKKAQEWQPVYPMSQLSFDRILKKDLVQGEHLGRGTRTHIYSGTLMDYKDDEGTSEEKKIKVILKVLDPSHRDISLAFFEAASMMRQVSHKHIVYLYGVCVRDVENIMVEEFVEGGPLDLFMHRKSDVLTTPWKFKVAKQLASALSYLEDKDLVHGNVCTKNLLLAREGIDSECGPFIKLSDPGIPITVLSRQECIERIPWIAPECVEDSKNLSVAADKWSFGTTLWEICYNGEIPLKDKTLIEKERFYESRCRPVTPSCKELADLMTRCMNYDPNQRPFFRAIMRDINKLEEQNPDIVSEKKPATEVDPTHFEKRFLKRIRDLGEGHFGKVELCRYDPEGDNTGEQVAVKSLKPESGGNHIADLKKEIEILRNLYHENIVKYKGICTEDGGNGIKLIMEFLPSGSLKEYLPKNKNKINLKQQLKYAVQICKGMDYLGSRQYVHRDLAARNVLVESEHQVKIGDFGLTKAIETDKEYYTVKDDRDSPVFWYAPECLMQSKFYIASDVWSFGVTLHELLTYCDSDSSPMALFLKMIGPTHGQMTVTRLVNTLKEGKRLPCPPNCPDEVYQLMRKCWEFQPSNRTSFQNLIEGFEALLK

| Structure (SMILES) | Ki (JAK1) [nM] | IC50 [1] [nM] | Ki (JAK2) [nM] | JAK2 pKi (JAK2) | JAK1 pKi (JAK1) | BEAS2B pIC50 [1] |
| --- | --- | --- | --- | --- | --- | --- |
| CCc1cc(O)ccc1-c1ccc2c(-c3nc(C4=CCCN(C[C@@H](C)CO)C4)c[nH]3)n[nH]c2c1F [Example 49] | 0.1 to 1 | 10 to 31.6 | 0.1 to 1 |  |  |  |
| CCc1cc(O)ccc1-c1ccc2c(-c3nc(C4=CCN(Cc5ccn[nH]5)CC4)c[nH]3)n[nH]c2c1F [Example 137] | 0.1 to 1 | 10 to 31.6 | 0.1 to 1 |  |  |  |
| CCc1cc(O)ccc1-c1ccc2c(-c3nc(C4=CCN(CC5COC5)C4)c[nH]3)n[nH]c2c1F [Example 74] | 0.1 to 1 | 10 to 31.6 |  | A (A represents a pKi value ≥10 (Ki≤0.1 nM)) |  |  |
| CCc1cc(O)ccc1-c1ccc2c(-c3nc(C4=CCN(CC(=O)NC)CC4)c[nH]3)n[nH]c2c1 [Example 78] | 0.1 to 1 | 10 to 31.6 |  | A (A represents a pKi value ≥10 (Ki≤0.1 nM)) |  |  |
| CCc1cc(O)ccc1-c1ccc2c(-c3nc(C4=CCCN(CCS(C)(=O)=O)C4)c[nH]3)n[nH]c2c1 [Example 87] | 0.1 to 1 | 10 to 31.6 |  | A (A represents a pKi value ≥10 (Ki≤0.1 nM)) |  |  |
| CCc1cc(O)ccc1-c1ccc2c(-c3nc(C4=CCN(CCN5CCNC5=O)C4)c[nH]3)n[nH]c2c1 [Example 127] | 0.1 to 1 | 10 to 31.6 | 0.1 to 1 |  |  |  |
| CCc1cc(O)ccc1-c1ccc2c(-c3nc(C4=CCC(C)(C)NC4)c[nH]3)n[nH]c2c1F [Example 306] | 0.1 to 1 | 10 to 31.6 | 0.1 to 1 |  |  |  |
| CCc1cc(O)ccc1-c1ccc2c(-c3nc(C4=CCN(S(C)(=O)=O)CC4)c[nH]3)n[nH]c2c1 [Example 148] | 0.1 to 1 | 10 to 31.6 | 0.1 to 1 |  |  |  |
| CCc1cc(O)ccc1-c1ccc2c(-c3nc(C4=CCN(C(=O)CNCCOC)C4)c[nH]3)n[nH]c2c1F [Example 362] | 0.1 to 1 | 31.6 to 100 |  | A (A represents a pKi value ≥10 (Ki≤0.1 nM)) |  |  |
| CCc1cc(O)ccc1-c1ccc2c(-c3nc(C4=CCN(CCS(=O)(=O)NC)CC4)c[nH]3)n[nH]c2c1 [Example 80] | 0.1 to 1 | 10 to 31.6 |  | A (A represents a pKi value ≥10 (Ki≤0.1 nM)) |  |  |
| CCc1cc(O)ccc1-c1ccc2c(-c3nc(C4=C[C@H](CO)NCC4)c[nH]3)n[nH]c2c1F [Example 348] | 0.1 to 1 | 31.6 to 100 |  | A (A represents a pKi value ≥10 (Ki≤0.1 nM)) |  |  |
| CCc1cc(O)ccc1-c1ccc2c(-c3nc(C4=CC[C@H](C)N(CCN5CCCC5=O)C4)c[nH]3)n[nH]c2c1F [Example 271] | 0.1 to 1 | 10 to 31.6 | 0.1 to 1 |  |  |  |
| CCc1cc(O)ccc1-c1ccc2c(-c3nc(C4=CCN(C(=O)CCNCCOC)C4)c[nH]3)n[nH]c2c1F [Example 381] | 0.1 to 1 | 31.6 to 100 |  | A (A represents a pKi value ≥10 (Ki≤0.1 nM)) |  |  |
| CCc1cc(O)ccc1-c1ccc2c(-c3nc(C4=CC[C@H](C)N(C[C@@H](C)CO)C4)c[nH]3)n[nH]c2c1F [Example 262] | 0.1 to 1 | 10 to 31.6 | 0.1 to 1 |  |  |  |
| CCc1cc(O)ccc1-c1ccc2c(-c3nc(C4=CCCN(C5CC(O)C5)C4)c[nH]3)n[nH]c2c1 (stereo not drawn) [Example 43] | 0.1 to 1 | 3.16 to 10 |  | A (A represents a pKi value ≥10 (Ki≤0.1 nM)) |  |  |
| CCc1cc(O)ccc1-c1ccc2c(-c3nc(C4=CCN(Cc5ccccc5)C4)c[nH]3)n[nH]c2c1 [Example 140] | 0.1 to 1 | 31.6 to 100 | 0.1 to 1 |  |  |  |
| CCc1cc(O)ccc1-c1ccc2c(-c3nc(C4=CCNC(CC)C4)c[nH]3)n[nH]c2c1F (stereo not drawn) [Example 346] | 1 to 10 | 10 to 31.6 | 0.1 to 1 |  |  |  |
| CCc1cc(O)ccc1-c1ccc2c(-c3nc(C4=CCN[C@H](CO)C4)c[nH]3)n[nH]c2c1F [Example 392] |  |  |  | B (B represents a pKi value between 9 (included) and 10 (Ki between 1 nM and 0.1 nM)) | B (B represents a pKi value between 9 (included) and 10 (Ki between 1 nM and 0.1 nM)) | D (D represents a pIC50 value between 6.5 (included) and 7) |
| CCc1cc(O)ccc1-c1ccc2c(-c3nc(C4=CCN(CCS(C)(=O)=O)CC4)c[nH]3)n[nH]c2c1 [Example 77] | 0.1 to 1 | 10 to 31.6 |  | A (A represents a pKi value ≥10 (Ki≤0.1 nM)) |  |  |
| CCc1cc(O)ccc1-c1ccc2c(-c3nc(C4=CCN(CCSC)CC4)c[nH]3)n[nH]c2c1 [Example 76] | 0.1 to 1 | 10 to 31.6 | 0.1 to 1 |  |  |  |
| CCc1cc(O)ccc1-c1ccc2c(-c3nc(C4=CCCN(C[C@H](C)CO)C4)c[nH]3)n[nH]c2c1F [Example 48] | 0.1 to 1 | 10 to 31.6 | 0.1 to 1 |  |  |  |
| CCc1cc(O)ccc1-c1ccc2c(-c3nc(C4=CCN(CCNC(C)=O)C4)c[nH]3)n[nH]c2c1F [Example 116] | 0.1 to 1 | 10 to 31.6 |  | A (A represents a pKi value ≥10 (Ki≤0.1 nM)) |  |  |
